{"source": "patent US20220088024A1", "about": "“METHODS FOR TREATING CANCER USING TOZADENANT” (Biotie Therapies, Inc., priority 2018, published 2022)", "key": {"[1]": {"assay": "Example 11: plasma pharmacokinetics (toxicokinetics) of tozadenant in mice after twice daily oral administration", "assay_type": "in vivo, Crl:CD1(ICR) mice", "conditions": "male, Crl:CD1(ICR), mouse, plasma, po", "protocol": "The plasma pharmacokinetics and exposure levels of tozadendant have been documented in mice after oral administration, the same route of administration as tozadenant was dosed in the oncology efficacy studies.\nThe PK of tozadenant in mice was compared across a range of doses and dose frequencies. […]\nGroups of mice of the Crl:CD1(ICR) strain were dosed, as follows:\nThe vehicle for the tozadenant in this mouse PK study was 1.6% (w/v) Avicel RC-591 (FMC), 0.2% (v/v) Tween 80, 0.18% (w/v) methylparaben and 0.02% (w/v) propylparaben in reverse osmosis water, pH 6.0±0.3. The 1.6% (w/v) Avicel RC-591 (FMC) was supplied by Biopolymer International, Brussels, Belgium. The 0.2% (v/v) Tween 80, 0.18% (w/v) methylparaben and 0.02% (w/v) propylparaben in reverse osmosis water, pH 6.0±0.3 was supplied by and Sigma-Aldrich Co Ltd, Poole, UK. This is the same formulation used for the mouse oncology model oral dosing.\nThe test article was administered orally by gavage, as follows:\nGroups 1 to 4: Twice for one day (0 and 8 hours apart relative to initial dose)\nGroup 5: Twice for one day (0 and 12 hours apart relative to initial dose)\nBlood samples for toxicokinetics (0.25 mL nominal) were taken from all toxicokinetic animals (subgroup 2), as follows:\nFor animals dosed at 0, 8 or 12 hour intervals, sampling time with respect to dose was symmetrical in each animal, for example, if an animal was sampled 0.5 hours after the first dose, it was sampled 0.5 hours after the second dose. The second sample obtained from each animal was collected under terminal anaesthesia.\nSamples were taken from the orbital sinus (with the exception of Group 3 animals at the 10 hour bleed, which were taken by cardiac puncture) under isoflurane anaesthesia into K2EDTA. Samples were gently inverted to ensure mixing with anticoagulant, placed on a blood roller for at least one minute and then placed in a Kryorack until centrifugation.\nCentrifugation was carried out at approximately 4-8° C. within one hour of collection. The resultant plasma from all samples was separated, transferred to uniquely labelled clear polypropylene tubes and frozen immediately at approximately <−10 to −30° C. Samples were analyzed at Covance.\nTozadenant was quantitated using protein precipitation followed by liquid chromatography mass spectrometry technique for quantification. This bioanalytical method was previously established and validated for tozadenant in mouse plasma."}, "[2]": {"assay": "Example 13: calculation of predicted human dose from mouse and human PK", "conditions": "for AUC: mouse, plasma", "protocol": "Using the PK data above in mice and humans, a human efficacious dose was estimated by identifying a dose in humans that would result in plasma exposures similar to the efficacious dose in the oncology models in mice. The 100 mg/kg/day dose studied for PK in mice and the 180 mg dose studied for PK in humans were the relevant doses used in this estimation.\nThis predicted human efficacious dose for tozadenant for treating cancer based on the measured PK data can be contrasted to the predicted dose that would be calculated by the less informed but standard approach of using body surface area comparisons between mice and humans, whereby the equivalent dose in humans would be calculated by dividing the dose in mice by 12.3 (see, e.g., Nair A B, Jacob S. A simple practice guide for dose conversion between animals and human. J Basic Clin Pharma 2016;7:27-31). This approach would result in a predicted efficacious dose of 0.24 mg/kg in humans, which is equivalent to approximately 17 mg in a typical 70 kg human. Thus, this prediction using the standard method results in a targeted human dose more than an order of magnitude higher than the one informed by PK."}}, "note": "Where two headings read alike, the source gives them in different places."}
{"smiles": "COc1ccc(N2CCOCC2)c2sc(NC(=O)N3CCC(C)(O)CC3)nc12", "note": "[SYN-115, 4-hydroxy-4-methyl-piperidine-1-carboxylic acid (4-methoxy-7-morpholin-4-yl-benzothiazol-2-yl)-amide]", "values": [{"measurement": "Tmax", "setting": "[1]; 100 mg/kg/day, mice, 100 mg/kg/day (50 mg/kg/dose×2) oral, 1 hour after the second dose, read-out: Average Tmax", "result": 9, "unit": "h"}, {"measurement": "Cmax", "setting": "[1]; 100 mg/kg/day, mice, 100 mg/kg/day (50 mg/kg/dose×2) oral, read-out: Average Cmax", "result": 764, "unit": "ng/mL"}, {"measurement": "AUC(0-t)", "setting": "[1]; 100 mg/kg/day, mice, 100 mg/kg/day (50 mg/kg/dose×2) oral, read-out: Average daily AUC0-24", "result": 3520, "unit": "ng·h/mL"}, {"measurement": "AUC(0-inf)", "setting": "[1]; 300 mg/kg/day, Group 2, Male, 300 mg/kg/day (150 mg/kg/dose), oral, dosing at 0, 8 hr", "result": 9930, "unit": "ng·h/mL"}, {"measurement": "AUC(0-t)", "setting": "[1]; 300 mg/kg/day, Group 2, Male, 300 mg/kg/day (150 mg/kg/dose), oral, dosing at 0, 8 hr, read-out: AUC0-8", "result": 5030, "unit": "ng·h/mL"}, {"measurement": "AUC(0-t)", "setting": "[1]; 300 mg/kg/day, Group 2, Male, 300 mg/kg/day (150 mg/kg/dose), oral, dosing at 0, 8 hr, read-out: AUC0-24", "result": 9900, "unit": "ng·h/mL"}, {"measurement": "AUC", "setting": "[1]; 300 mg/kg/day, Group 2, Male, 300 mg/kg/day (150 mg/kg/dose), oral, dosing at 0, 8 hr, read-out: AUC8-24", "result": 4870, "unit": "ng·h/mL"}, {"measurement": "Cmax", "setting": "[1]; 300 mg/kg/day, Group 2, Male, 300 mg/kg/day (150 mg/kg/dose), oral, dosing at 0, 8 hr, read-out: Cmax", "result": 1720, "unit": "ng/mL"}, {"measurement": "Tmax", "setting": "[1]; 300 mg/kg/day, Group 2, Male, 300 mg/kg/day (150 mg/kg/dose), oral, dosing at 0, 8 hr, read-out: Tmax", "result": 8.8, "unit": "h"}, {"measurement": "half-life", "setting": "[1]; 300 mg/kg/day, Group 2, Male, 300 mg/kg/day (150 mg/kg/dose), oral, dosing at 0, 8 hr, read-out: t1/2 (converted)", "result": 0.971, "unit": "h"}, {"measurement": "AUC(0-t)", "setting": "[1]; 1000 mg/kg/day, Group 3, Male, 1000 mg/kg/day (500 mg/kg/dose), oral, dosing at 0, 8 hr, read-out: AUC0-8", "result": 13800, "unit": "ng·h/mL"}, {"measurement": "AUC(0-t)", "setting": "[1]; 1000 mg/kg/day, Group 3, Male, 1000 mg/kg/day (500 mg/kg/dose), oral, dosing at 0, 8 hr, read-out: AUC0-24", "result": 29900, "unit": "ng·h/mL"}, {"measurement": "AUC", "setting": "[1]; 1000 mg/kg/day, Group 3, Male, 1000 mg/kg/day (500 mg/kg/dose), oral, dosing at 0, 8 hr, read-out: AUC8-24", "result": 16100, "unit": "ng·h/mL"}, {"measurement": "Cmax", "setting": "[1]; 1000 mg/kg/day, Group 3, Male, 1000 mg/kg/day (500 mg/kg/dose), oral, dosing at 0, 8 hr, read-out: Cmax", "result": 3610, "unit": "ng/mL"}, {"measurement": "Tmax", "setting": "[1]; 1000 mg/kg/day, Group 3, Male, 1000 mg/kg/day (500 mg/kg/dose), oral, dosing at 0, 8 hr, read-out: Tmax", "result": 10.2, "unit": "h"}, {"measurement": "Tmax", "setting": "[1]; 2000 mg/kg/day, 0, 8 hours dosing, all groups except females at 2000 mg/kg/day, read-out: Tmax (post dose, following the second dose)", "result": "0.8 to 2.2", "unit": "h"}, {"measurement": "AUC(0-inf)", "setting": "[1]; 2000 mg/kg/day, Group 4, Male, 2000 mg/kg/day (1000 mg/kg/dose), oral, dosing at 0, 8 hr", "result": 43100, "unit": "ng·h/mL"}, {"measurement": "AUC(0-t)", "setting": "[1]; 2000 mg/kg/day, Group 4, Male, 2000 mg/kg/day (1000 mg/kg/dose), oral, dosing at 0, 8 hr, read-out: AUC0-8", "result": 20500, "unit": "ng·h/mL"}, {"measurement": "AUC(0-t)", "setting": "[1]; 2000 mg/kg/day, Group 4, Male, 2000 mg/kg/day (1000 mg/kg/dose), oral, dosing at 0, 8 hr, read-out: AUC0-24", "result": 43000, "unit": "ng·h/mL"}, {"measurement": "AUC", "setting": "[1]; 2000 mg/kg/day, Group 4, Male, 2000 mg/kg/day (1000 mg/kg/dose), oral, dosing at 0, 8 hr, read-out: AUC8-24", "result": 22500, "unit": "ng·h/mL"}, {"measurement": "Cmax", "setting": "[1]; 2000 mg/kg/day, Group 4, Male, 2000 mg/kg/day (1000 mg/kg/dose), oral, dosing at 0, 8 hr, read-out: Cmax", "result": 5080, "unit": "ng/mL"}, {"measurement": "Tmax", "setting": "[1]; 2000 mg/kg/day, Group 4, Male, 2000 mg/kg/day (1000 mg/kg/dose), oral, dosing at 0, 8 hr, read-out: Tmax", "result": 9, "unit": "h"}, {"measurement": "half-life", "setting": "[1]; 2000 mg/kg/day, Group 4, Male, 2000 mg/kg/day (1000 mg/kg/dose), oral, dosing at 0, 8 hr, read-out: t1/2 (converted)", "result": 2.02, "unit": "h"}, {"measurement": "AUC(0-inf)", "setting": "[1]; 2000 mg/kg/day, Group 5, Male, 2000 mg/kg/day (1000 mg/kg/dose), oral, dosing at 0, 12 hr", "result": 31300, "unit": "ng·h/mL"}, {"measurement": "AUC(0-t)", "setting": "[1]; 2000 mg/kg/day, Group 5, Male, 2000 mg/kg/day (1000 mg/kg/dose), oral, dosing at 0, 12 hr, read-out: AUC0-12", "result": 17800, "unit": "ng·h/mL"}, {"measurement": "AUC(0-t)", "setting": "[1]; 2000 mg/kg/day, Group 5, Male, 2000 mg/kg/day (1000 mg/kg/dose), oral, dosing at 0, 12 hr, read-out: AUC0-24", "result": 31100, "unit": "ng·h/mL"}, {"measurement": "AUC", "setting": "[1]; 2000 mg/kg/day, Group 5, Male, 2000 mg/kg/day (1000 mg/kg/dose), oral, dosing at 0, 12 hr, read-out: AUC12-24", "result": 13300, "unit": "ng·h/mL"}, {"measurement": "Cmax", "setting": "[1]; 2000 mg/kg/day, Group 5, Male, 2000 mg/kg/day (1000 mg/kg/dose), oral, dosing at 0, 12 hr, read-out: Cmax", "result": 6440, "unit": "ng/mL"}, {"measurement": "Tmax", "setting": "[1]; 2000 mg/kg/day, Group 5, Male, 2000 mg/kg/day (1000 mg/kg/dose), oral, dosing at 0, 12 hr, read-out: Tmax", "result": 1.1, "unit": "h"}, {"measurement": "half-life", "setting": "[1]; 2000 mg/kg/day, Group 5, Male, 2000 mg/kg/day (1000 mg/kg/dose), oral, dosing at 0, 12 hr, read-out: t1/2 (converted)", "result": 1.36, "unit": "h"}, {"measurement": "Tmax", "setting": "[1]; 2000 mg/kg/day, males, 0, 12 hour dosing, read-out: Tmax (following the first dose)", "result": 1.1, "unit": "h"}, {"measurement": "half-life", "setting": "[1]; mice, all dose levels where calculated, read-out: Half-lives", "result": "1 to 2", "unit": "h"}, {"measurement": "AUC", "setting": "[2]; oral, mice, 3 mg/kg efficacious dose, read-out: Point estimate AUC (linear extrapolation)", "result": "~106", "unit": "ng·h/mL"}, {"measurement": "AUC", "setting": "[2]; 2 mg/kg dose in mice, read-out: Target AUC in humans", "result": 71, "unit": "ng·h/mL"}, {"measurement": "Predicted human dose achieving target AUC", "setting": "[2]; target AUC of 71 hr*ng/mL (2 mg/kg mouse dose)", "result": "approximately 0.6 mg"}, {"measurement": "Predicted human dose achieving target AUC", "setting": "[2]; target AUC of 106 hr*ng/mL (3 mg/kg mouse dose)", "result": "approximately 0.9 mg"}]}
